Laboratory results reported in US20130072430A1, “METHODS FOR TREATMENT OR PROPHYLAXIS OF KIDNEY OR LIVER DYSFUNCTION” (NPS PHARMACEUTICALS, INC., priority 2010, published 2013).

Tested on: Human patients with short bowel syndrome
Assay: Example 2: liver biomarkers (albumin, gamma glutamyl transferase, total bilirubin, ALT, AST, ALP) in short bowel syndrome patients, every four weeks for 24 weeks
Format: in vivo
Experimental: To further confirm the results of Example 1, a further study was conducted involving more individuals and additional diagnostic biomarkers. Human patients with short bowel syndrome were divided into two groups: a control group (43 total individuals) to receive placebo, and an experimental group (42 total individuals) to receive teduglutide at 0.05 mg/kg/day throughout the study. Patients were treated by subcutaneous injection of placebo or the appropriate dose of teduglutide. Known biomarkers of liver function were monitored every four weeks, for 24 weeks. The liver biomarkers tested included albumin, gamma glutamyl transferase, total bilirubin, ALT and AST and ALP. Before administration of placebo or teduglutide, diagnostic biomarker levels were tested to establish a baseline for each individual.
To determine the effect of GLP-2 on the levels of the diagnostic biomarkers, the average level of each biomarker was measured for the placebo and teduglutide treated groups for each visit. Furthermore, the average change from baseline was calculated using the established baseline values. For FIGS. 17-28, p-values were calculated using the t-test.
P values are provided, which were calculated for each distribution of biomarker changes for each week using the chi-squared test.

[1] = Endpoint (last assessment after start of treatment), 0.05 mg/kg/d, n=42
[2] = Endpoint (last assessment), 0.05 mg/kg/d, m=42

CC[C@H](C)[C@H](NC(=O)[C@H](Cc1ccccc1)NC(=O)[C@H](CC(=O)O)NC(=O)[C@H](CCCNC(=N)N)NC(=O)[C@H](C)NC(=O)[C@H](C)NC(=O)[C@H](CC(C)C)NC(=O)[C@H](CC(N)=O)NC(=O)[C@H](CC(=O)O)NC(=O)[C@H](CC(C)C)NC(=O)[C@@H](NC(=O)[C@@H](NC(=O)[C@H](CC(N)=O)NC(=O)[C@H](CCSC)NC(=O)[C@H](CCC(=O)O)NC(=O)[C@H](CC(=O)O)NC(=O)[C@H](CO)NC(=O)[C@H](Cc1ccccc1)NC(=O)[C@H](CO)NC(=O)CNC(=O)[C@H](CC(=O)O)NC(=O)CNC(=O)[C@@H](N)Cc1c[nH]cn1)[C@@H](C)O)[C@@H](C)CC)C(=O)N[C@@H](CC(N)=O)C(=O)N[C@@H](Cc1c[nH]c2ccccc12)C(=O)N[C@@H](CC(C)C)C(=O)N[C@H](C(=O)N[C@@H](CCC(N)=O)C(=O)N[C@H](C(=O)N[C@@H](CCCCN)C(=O)N[C@H](C(=O)N[C@H](C(=O)N[C@@H](CC(=O)O)C(=O)O)[C@@H](C)O)[C@@H](C)CC)[C@@H](C)O)[C@@H](C)CC [teduglutide]
average level of diagnostic biomarkers elevated in liver dysfunction versus placebo cohort (0.05 mg/kg/day): lower level, on average
likelihood of a >10% decrease in liver biomarkers versus placebo (0.05 mg/kg/day): more likely
likelihood of a >10% increase in liver biomarkers versus placebo (0.05 mg/kg/day): less likely
measured level of albumin relative to placebo cohort (0.05 mg/kg/day, as treatment progressed): became elevated
ALKALINE PHOSPHATASE Change from Baseline, Median [1]: −22 U/L
ALT Change from Baseline, Mean [1]: −12.1 U/L
ALT Change from Baseline, Median [1]: −4 U/L
ALT Observed Value, Mean [1]: 31.0 U/L
ALT Observed Value, Median [1]: 23.5 U/L
AST Change from Baseline, Mean [1]: −5.4 U/L
AST Change from Baseline, Median [1]: −3 U/L
AST Observed Value, Mean [1]: 27.0 U/L
AST Observed Value, Median [1]: 24 U/L
Albumin Change from Baseline, Mean [1]: -0.5 g/L
Albumin Change from Baseline, Median [1]: 0 g/L
Albumin Observed Value, Mean [1]: 41.9 g/L
Albumin Observed Value, Median [1]: 42 g/L
Alkaline Phosphatase Change from Baseline, Mean [1]: −28.3 U/L
Alkaline Phosphatase Observed Value, Mean [1]: 106.4 U/L
Alkaline Phosphatase Observed Value, Median [1]: 90.5 U/L
Bilirubin Change from Baseline, Mean [1]: -3.33 µmol/L
Bilirubin Change from Baseline, Median [1]: -1.95 µmol/L
Bilirubin Observed Value, Mean [1]: 8.87 µmol/L
Bilirubin Observed Value, Median [1]: 6.95 µmol/L
Gamma Glutamyl Transferase Change from Baseline, Mean [1]: −12.8 U/L
Gamma Glutamyl Transferase Change from Baseline, Median [1]: −6 U/L
Gamma Glutamyl Transferase Observed Value, Mean [1]: 62.3 U/L
Gamma Glutamyl Transferase Observed Value, Median [1]: 42 U/L
ALT >10% decrease from Baseline, % of subjects [2]: (59.5%)
ALT >10% decrease from Baseline, n subjects [2]: 25
ALT >10% increase from Baseline, % of subjects [2]: (11.9%)
ALT >10% increase from Baseline, n subjects [2]: 5
ALT Within 10% of Baseline, % of subjects [2]: (28.6%)
ALT Within 10% of Baseline, n subjects [2]: 12
AST >10% decrease from Baseline, % of subjects [2]: (59.5%)
AST >10% decrease from Baseline, n subjects [2]: 25
AST >10% increase from Baseline, % of subjects [2]: (14.3%)
AST >10% increase from Baseline, n subjects [2]: 6
AST Within 10% of Baseline, % of subjects [2]: (26.2%)
AST Within 10% of Baseline, n subjects [2]: 11
Albumin >10% decrease from Baseline, % of subjects [2]: (4.8%)
Albumin >10% decrease from Baseline, n subjects [2]: 2
Albumin >10% increase from Baseline, n subjects [2]: 0
Albumin Within 10% of Baseline, % of subjects [2]: (95.2%)
Albumin Within 10% of Baseline, n subjects [2]: 40
Alkaline Phosphatase >10% decrease from Baseline, % of subjects [2]: (57.1%)
Alkaline Phosphatase >10% decrease from Baseline, n subjects [2]: 24
Alkaline Phosphatase >10% increase from Baseline, % of subjects [2]: (14.3%)
Alkaline Phosphatase >10% increase from Baseline, n subjects [2]: 6
Alkaline Phosphatase Within 10% of Baseline, % of subjects [2]: (28.6%)
Alkaline Phosphatase Within 10% of Baseline, n subjects [2]: 12
Bilirubin >10% decrease from Baseline, % of subjects [2]: (64.3%)
Bilirubin >10% decrease from Baseline, n subjects [2]: 27
Bilirubin >10% increase from Baseline, % of subjects [2]: (16.7%)
Bilirubin >10% increase from Baseline, n subjects [2]: 7
Bilirubin Within 10% of Baseline, % of subjects [2]: (19.0%)
Bilirubin Within 10% of Baseline, n subjects [2]: 8
ALT >10% decrease from Baseline, % of subjects (Week 2, 0.05 mg/kg/d, m=40): (57.5%)
ALT >10% decrease from Baseline, n subjects (Week 2, 0.05 mg/kg/d, m=40): 23
ALT >10% increase from Baseline, % of subjects (Week 2, 0.05 mg/kg/d, m=40): (17.5%)
ALT >10% increase from Baseline, n subjects (Week 2, 0.05 mg/kg/d, m=40): 7
ALT Within 10% of Baseline, % of subjects (Week 2, 0.05 mg/kg/d, m=40): (25.0%)
ALT Within 10% of Baseline, n subjects (Week 2, 0.05 mg/kg/d, m=40): 10
AST >10% decrease from Baseline, % of subjects (Week 2, 0.05 mg/kg/d, m=40): (50.0%)
AST >10% decrease from Baseline, n subjects (Week 2, 0.05 mg/kg/d, m=40): 20
AST >10% increase from Baseline, % of subjects (Week 2, 0.05 mg/kg/d, m=40): (12.5%)
AST >10% increase from Baseline, n subjects (Week 2, 0.05 mg/kg/d, m=40): 5
AST Within 10% of Baseline, % of subjects (Week 2, 0.05 mg/kg/d, m=40): (37.5%)
AST Within 10% of Baseline, n subjects (Week 2, 0.05 mg/kg/d, m=40): 15
Albumin >10% decrease from Baseline, % of subjects (Week 2, 0.05 mg/kg/d, m=40): (7.5%)
Albumin >10% decrease from Baseline, n subjects (Week 2, 0.05 mg/kg/d, m=40): 3
Albumin >10% increase from Baseline, n subjects (Week 2, 0.05 mg/kg/d, m=40): 0
Albumin Within 10% of Baseline, % of subjects (Week 2, 0.05 mg/kg/d, m=40): (92.5%)
Albumin Within 10% of Baseline, n subjects (Week 2, 0.05 mg/kg/d, m=40): 37
Alkaline Phosphatase >10% decrease from Baseline, % of subjects (Week 2, 0.05 mg/kg/d, m=40): (37.5%)
Alkaline Phosphatase >10% decrease from Baseline, n subjects (Week 2, 0.05 mg/kg/d, m=40): 15
Alkaline Phosphatase >10% increase from Baseline, % of subjects (Week 2, 0.05 mg/kg/d, m=40): (15.0%)
Alkaline Phosphatase >10% increase from Baseline, n subjects (Week 2, 0.05 mg/kg/d, m=40): 6
Alkaline Phosphatase Within 10% of Baseline, % of subjects (Week 2, 0.05 mg/kg/d, m=40): (47.5%)
Alkaline Phosphatase Within 10% of Baseline, n subjects (Week 2, 0.05 mg/kg/d, m=40): 19
Bilirubin >10% decrease from Baseline, % of subjects (Week 2, 0.05 mg/kg/d, m=40): (70.0%)
Bilirubin >10% decrease from Baseline, n subjects (Week 2, 0.05 mg/kg/d, m=40): 28
Bilirubin >10% increase from Baseline, % of subjects (Week 2, 0.05 mg/kg/d, m=40): (17.5%)
Bilirubin >10% increase from Baseline, n subjects (Week 2, 0.05 mg/kg/d, m=40): 7
Bilirubin Within 10% of Baseline, % of subjects (Week 2, 0.05 mg/kg/d, m=40): (12.5%)
Bilirubin Within 10% of Baseline, n subjects (Week 2, 0.05 mg/kg/d, m=40): 5
ALKALINE PHOSPHATASE Change from Baseline, Median (Week 2, 0.05 mg/kg/d, n=40): −8 U/L
ALT Change from Baseline, Mean (Week 2, 0.05 mg/kg/d, n=40): −8.9 U/L
ALT Change from Baseline, Median (Week 2, 0.05 mg/kg/d, n=40): −5.5 U/L
ALT Observed Value, Mean (Week 2, 0.05 mg/kg/d, n=40): 35.2 U/L
ALT Observed Value, Median (Week 2, 0.05 mg/kg/d, n=40): 27.5 U/L
AST Change from Baseline, Mean (Week 2, 0.05 mg/kg/d, n=40): −3.6, U/L
AST Change from Baseline, Median (Week 2, 0.05 mg/kg/d, n=40): −3 U/L
AST Observed Value, Mean (Week 2, 0.05 mg/kg/d, n=40): 29.0 U/L
AST Observed Value, Median (Week 2, 0.05 mg/kg/d, n=40): 24.5 U/L
Albumin Change from Baseline, Mean (Week 2, 0.05 mg/kg/d, n=40): -0.9 g/L
Albumin Change from Baseline, Median (Week 2, 0.05 mg/kg/d, n=40): -1 g/L
Albumin Observed Value, Mean (Week 2, 0.05 mg/kg/d, n=40): 41.5 g/L
Albumin Observed Value, Median (Week 2, 0.05 mg/kg/d, n=40): 42 g/L
Alkaline Phosphatase Change from Baseline, Mean (Week 2, 0.05 mg/kg/d, n=40): −12.5 U/L
Alkaline Phosphatase Observed Value, Mean (Week 2, 0.05 mg/kg/d, n=40): 123.7 U/L
Alkaline Phosphatase Observed Value, Median (Week 2, 0.05 mg/kg/d, n=40): 104 U/L
Bilirubin Change from Baseline, Mean (Week 2, 0.05 mg/kg/d, n=40): -2.12 µmol/L
Bilirubin Change from Baseline, Median (Week 2, 0.05 mg/kg/d, n=40): -1.85 µmol/L
Bilirubin Observed Value, Mean (Week 2, 0.05 mg/kg/d, n=40): 10.29 µmol/L
Bilirubin Observed Value, Median (Week 2, 0.05 mg/kg/d, n=40): 7.65 µmol/L
Gamma Glutamyl Transferase Change from Baseline, Mean (Week 2, 0.05 mg/kg/d, n=40): 7.4 U/L
